Measurements: patent publication US10111420B2 (priority 2011, dated 2018)

Test: Sessile advancing contact angle of distilled water containing surfactants
Type: physicochemical
Settings: water on oven dry P. radiata
Description: The contact angle data is recorded using water because resins, by their nature, can continue to polymerise resulting in changes in viscosity which will change the wetting behaviour of the resin/surfactant mix. […] Water is also present in all amino resins as the carrier of the resin solids so it is important to understand the effect of the surfactant on water because this will have a direct relationship on the wetting performance of the resin. The contact angle shown below is the average of at least 5 measurements. The measurements were taken after 1 second and in some instances after half a second. Where the entry is “n/a” it indicates complete wetting i.e. a contact angle of 0° or very close to 0°.

In the case of CCCCCCCCCCCCOS(=O)(=O)[O-].[Na+] [SDS], the “Contact angle @ 1 sec” value (surfactant 0.05%, octanol 0.1%) was 31.0 °, the “Contact angle @ 1 sec” value (surfactant 0.1%, octanol 0.1%) was 9.5 ° and the “Contact angle @ 1 sec” value (surfactant 0.1%, octanol 0.25%) was 8.99 °.
